These results are taken from patent US10857105B2, “Compounds and compositions for intracellular delivery of therapeutic agents” (ModernaTX, Inc., priority 2017, dated 2020).

One series relates to modified luciferase. Kind of series: Luciferase expression in liver, lung, spleen and femur 6 hours after intravenous administration to mice. Format: in vivo. The following applies: 6 hours after intravenous 0.5 mpk, mice. In short, it runs like this: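 Nanoparticle formulations of the modified luciferase were given intravenously to mice (n=3) at 0.5 mpk. Bioluminescence was measured after 6 hours as total light flux. Standard MC3 formulation and PBS run as controls.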

Another series concerns CD-1 mice. Kind of series: Luciferase expression after intravenous delivery of luciferase mRNA LNPs (bioluminescent imaging). The following applies: intravenous 0.5 mg/kg mRNA dose. Type of series: in vivo. On the procedure:
Whole body and ex vivo organ bioluminescent imaging of mice: CD-1 mice were injected 15 minutes prior to the imaging timepoint intraperitoneally (IP) with 200 μL Xenolight D-luciferin K+ salt, diluted in PBS just prior to use to a concentration of 15 mg/mL. Ex vivo imaging of organs was completed, within 25 minutes of luciferin administration. All images were quantified by region of interest for total flux.
[…] […] (See Semple, S.C. et al., Nature Biotech. 2010. 28, 172-176, Jayaraman, M., et al. Angew. Chem. Int. Ed. 2012, 51, 8529-8533, the entire contents of each of which are incorporated by reference herein in their entireties). To evaluate the efficiency of the new amino lipids, LNPs using the novel compounds were tested in vivo in mice using luciferase mRNA as a reporter. An MC3 LNP was included as a control in each experiment, enabling the comparison of LNPs from experiment to experiment. Measured luciferase activity also enabled the determination of protein bio-distribution.

Series [1] in a line: Encapsulation efficiency of RNA in nanoparticle compositions (RIBOGREEN assay). Type of series: physicochemical. The following applies: Table 1A; lipid:DSPC:cholesterol:PEG-DMG 50:10:38.5:1.5 mol %. In short, it runs like this:
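Lipid nanoparticles (ionisable lipid:DSPC:cholesterol:PEG-DMG 50:10:38.5:1.5 mol %) carrying N1-methylpseudouridine luciferase or hEPO mRNA diluted to about 5 μg/mL in TE, pH 7.5, with or without 2% Triton X-100, 15 min at 37° C. RiboGreen fluorescence (ex ~480, em ~520 nm) blank-subtracted; free RNA = intact/disrupted signal.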

A further series concerns IL-6, IP-10. Kind of series: Cytokine induction (IL-6, IP-10) in mice 6 hours after intravenous administration. Format: in vivo. Set-up: unit not given here. The following applies: intravenous 0.5 mpk. The method, boiled down: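 Mice dosed intravenously with nanoparticle compositions at 0.5 mpk; serum cytokine concentrations (IL-6, IP-10) measured at 6 hours. MC3 formulation and PBS controls run alongside.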

Series [2] in a line: Chemical stability of lipids in ethanol at room temperature and 37° C. (lipid purity). Type of series: physicochemical. On the procedure:
Ester linkages were previously reported to trigger metabolism by esterases in vivo. (See Fukami, T. et al. Drug Metab. Pharmacokinet. 2012, 27, 466-477, the content of which is incorporated by reference herein in its entirety). […] (See Maier M. A., Mol. Ther. 2013, 21, 1570-1578, the content of which is incorporated herein in its entirety) First, the chemical stability of the lipids was evaluated by measuring ethanol stability at room temperature and 37° C. (Table 39). […] LNPs formed with compound 138 were larger, with a surface pKa>7. […] Removal of one ester function (compound 136) afforded LNPs with improved physiochemical characteristics and lower LNP surface pKa.

A short description of series [3]: Residual lipid levels in rat liver and spleen (UPLC-MS). Format: in vivo. The following applies: rats, 2 mpk, 48 h; assuming 300 g rat and 15 g liver. On the procedure: At 48 h liver tissue was harvested for lipid quantification. To pre-weighed tissues, Milli-Q water was added (900 μL water per 100 mg tissue). Tissues were homogenized using an Omni probe homogenizer until uniform. 50 μL of samples and matrix calibration standards were aliquoted into a 96-well plate. 50 μL of blank matrix for matrix blanks and control blanks were aliquoted. 400 μL IS spiking solution were manually added to all samples except matrix blanks. 400 μL of 50:50 ACN:IPA were manually added to matrix-blanks. The plate was covered and the samples vortexed and centrifuged for 5 minutes at >3000 rpm. 200 μL of the samples were transferred into a clean 96-well plate for analysis. Samples were analyzed on a Waters Acquity UPLC using a Higgins Analytical Clipeus C8 column ([…], 30×2.1 mm) and a gradient of either 70-95% or 60-95% (Mobile Phase A: 5 mM ammonium formate in 50:50:1 H2O:MeOH:formic acid; Mobile Phase B: 5 mM ammonium formate in 100:1 MeOH:formic acid) over 1.3 min at […] (column temperature 55° C.). Detection was based on electrospray ionization (ESI) in positive mode using a Sciex API5500 Mass Spectrometer.
(§1) The expression of hEPO in rats intravenously administered a nanoparticle composition at a dose of 0.2 mpk or 2.0 mpk was measured at 6 hours. Table 16 summarize the ratio of hEPO expression levels using various nanoparticle compositions as compared to the hEPO expression level using MC3 formulation and the lipid levels in the liver measured 48 hours after administration, as described above. Tables 17 and 18 summarize the lipid levels in the liver and spleen measured 48 hours after administration of Compounds 28, 33, 53, and 54. Liver and spleen levels represent the average values calculated for 3 rats in each group. As is shown in Tables 17 and 18, less than 10% of Compounds 28, 33, 53, and 54 remained in the liver after 48 hours, while greater than 60% of MC3 remained.
(§2) Table 19A summarizes the hEPO expression, IP-10 induction, liver and spleen levels, and alanine aminotransferase (ALT) and aspartate aminotransferase (AST) measured upon intravenous administration of formulations including Compounds 48, 49, and 50 to rat at 0.2 and 2 mpk and hEPO mRNA. hEPO concentrations were measured 6 hours after administration, while cytokine induction and liver and spleen levels were measured 48 hours after administration. hEPO and IP-10 concentrations are presented in pg/ml, while liver levels are provided in ng/g. ALT and AST levels are presented in international units.
(§3) The expression of hEPO and lipid levels in the liver and spleen in rats intravenously administered a nanoparticle composition at a dose of 0.2 mpk was measured at various time points. Compounds 18 and 25 were selected for comparison with MC3. Lipids were formulated according to the standard MC3 formulation described above. Rats were administered intravenously a single 0.2 mpk dose and expression monitored at 0.25, 0.5, 1, 2, 4, 8, 24, and 48 hours after administration.

The nature of series [4]: Particle size and polydispersity index of nanoparticle compositions (Zetasizer Nano ZS). Type of series: physicochemical. The method, boiled down:
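Size and PDI measured by Zetasizer Nano ZS in 1×PBS (zeta potential in 15 mM PBS). Lipid nanoparticles contained test ionizable lipid:DSPC:cholesterol:PEG-DMG at 50:10:38.5:1.5 mol % with N1-methyl-pseudouridine mRNA encoding luciferase or hEPO.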

The test system of the next series is hEPO mRNA. Kind of series: hEPO expression after intravenous administration to rats. Type of series: in vivo, rat. The note with it: rats, 6 hours; for Lipid/MC3 hEPO conc. ratio, 0.2 mpk: intravenous 0.2 mpk; for Lipid/MC3 hEPO conc. ratio, 2 mpk: intravenous 2 mpk. How it is done: The expression of hEPO and cytokine induction in rats intravenously administered a nanoparticle composition at a dose of 2.0 mpk was measured at 6 h.
as §1, §2
The expression of hEPO induced by intravenous administration to rats of nanoparticle compositions at various doses was measured at 2, 4, 6, 8, 24, and 48 hour time points. FIGS. 3-6 respectively summarize the hEPO expression measured upon intravenous administration of formulations including Compounds 26, 18, 25, and MC3 to rat at various doses. The lipid levels of Compound 26 in the liver after 48 hours were about 19%.
as §3

The mark [5] stands for this setting: Table 1A, lipid:DSPC:cholesterol:PEG-DMG 50:10:38.5:1.5 mol %.

`CCCCCCCCCOC(=O)CCCCCCCN(CCCCCCCC(=O)OC(CCCCCCCC)CCCCCCCC)CCN(C)C` [Compound 14, Heptadecan-9-yl 8-((2-(dimethylamino)ethyl)(8-(nonyloxy)-8-oxooctyl)amino)octanoate]: in the series on modified luciferase, the “Total Flux, Femur” value was determined as 4.91E+06; the “Total Flux, Liver” value worked out at 1.91E+08; the “Total Flux, Lung” value stood at 4.74E+06; the “Total Flux, Spleen” value is 1.92E+08. For the same compound, the “luciferase activity/expression compared to MC3 LNP control (words)” value with CD-1 mice (0.5 mg/kg) was “complete loss of delivery efficiency”. For the same compound, the “luciferase activity/expression compared to MC3 LNP control (words)” value in the series on CD-1 mice (listed as compound 14, 0.5 mg/kg) is “low levels of Luciferase expression”. This compound gave an EE in series [1] of 95.24%. In addition, in the series with IL-6, IP-10, the “Cytokine induction, IL-6” value stood at 75.29 and the “Cytokine induction, IP-10” value stood at 621.49. In series [2], the “Lipid Purity, t = 96 h, 25° C.” value is on record as 92.07%; the “Lipid Purity, t = 96 h, 37° C.” value is on record as 91.90%; the “Lipid Purity, t = 0” value is reported as 92.08%.
Take `CCCCCCCCC(CC)OC(=O)CCCCCCCN(CCO)CCCCCCCC(=O)OC(CCCCCCCC)CCCCCCCC` (stereo not shown) [Compound 49, heptadecan-9-yl 8-((2-hydroxyethyl)(8-oxo-8-(undecan-3-yloxy)octyl)amino)octanoate]: the “% Lipid Remaining in liver, 48 h, 2 mpk” value in series [3] is on record as 12.6%. In series [4] (setting [5]), this compound displayed a Size of 88 nm. For the same compound, in series [4] (Table 1D, compositions for subcutaneous administration, # formulated with hEPO mRNA), the Size came out at 74.0 nm. Also, in the series with modified luciferase, the “Total Flux, Liver” value turned out to be 5.68E+09; the “Total Flux, Lung” value was 2.52E+07; the “Total Flux, Spleen” value turned out to be 1.87E+08. Also, in the series on hEPO mRNA, the “Lipid/MC3 hEPO conc. ratio, 0.2 mpk” value amounted to 4.13 and the “Lipid/MC3 hEPO conc. ratio, 2 mpk” value is recorded as 3.28.
Turning to `CCCCCCCCC(CCC)OC(=O)CCCCCCCN(CCO)CCCCCCCC(=O)OC(CCCCCCCC)CCCCCCCC` (stereo not shown) [Compound 50, dodecan-4-yl 8-((8-(heptadecan-9-yloxy)-8-oxooctyl)(2-hydroxyethyl)amino)octanoate], the “% Lipid Remaining in liver, 48 h, 2 mpk” value in series [3] stood at 15.9%. The compound further showed a Size in series [4] (setting [5]) of 68.4 nm. Further, in the series with modified luciferase, the “Total Flux, Liver” value turned out to be 6.30E+09; the “Total Flux, Lung” value was found to be 2.81E+07; the “Total Flux, Spleen” value came to 1.14E+08. Moreover, in the series on hEPO mRNA, the “Lipid/MC3 hEPO conc. ratio, 0.2 mpk” value stood at 3.41 and the “Lipid/MC3 hEPO conc. ratio, 2 mpk” value is given as 3.03.
`CCCCCCCCC(CCCCCCCC)OC(=O)CCCCCCCN(CCO)CCCCCCCC(=O)OC(CCCCCCCC)CCCCCCCC` [compound 29, Di(heptadecan-9-yl) 8,8′-((2-hydroxyethyl)azanediyl)dioctanoate]: in the series on modified luciferase, the “Total Flux, Femur” value is 9.56E+05; the “Total Flux, Liver” value worked out at 5.20E+08; the “Total Flux, Lung” value is 9.83E+05; the “Total Flux, Spleen” value was found to be 5.99E+06. The “luciferase activity/expression compared to MC3 LNP control (words)” value with CD-1 mice is “lower luciferase activity”. Further, the EE in series [1] came out at 96.99%. In the series with IL-6, IP-10, the “Cytokine induction, IL-6” value worked out at 69.54 and the “Cytokine induction, IP-10” value worked out at 1362.81. Moreover, in series [2], the “Lipid Purity, t = 96 h, 25° C.” value turned out to be 97.67%; the “Lipid Purity, t = 96 h, 37° C.” value was 98.10%; the “Lipid Purity, t = 0” value was determined as 97.017%.
In the case of `CCCCCCCCCOC(=O)CCCCCCCN(CCCCCCCC(=O)OC(CCCCCCCC)CCCCCCCC)CCCNC(=O)C(C)(C)COC` [compound 281, Heptadecan-9-yl 8-((3-(3-methoxy-2,2-dimethylpropanamido)propyl)(8-(nonyloxy)-8-oxooctyl)amino)octanoate], in the series with CD-1 mice, the “localization of protein expression (whole body imaging)” value is recorded as “majority of protein expression was localized in the liver” and the “luciferase activity/expression compared to MC3 LNP control (words)” value is listed as “two-fold lower”. For the same compound, in series [2], the “Lipid Purity, t = 96 h, 25° C.” value amounted to 95.15%; the “Lipid Purity, t = 96 h, 37° C.” value is given as 96.47%; the “Lipid Purity, t = 0” value stood at 95.17%.
